From PubChem BioAssay (NCI)
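Interpolation was linear, between the two tested concentrations surrounding the appropriate level; five concentrations were tested over 48 hours in 96-well plates. TGI is the concentration that stops growth completely.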

Experiments:
Test in all cases: DTP human tumour cell line panel, 48 h
[1] = tested on: K-562 leukemia
[2] = tested on: NCI-H226 lung
[3] = tested on: OVCAR-5 ovarian
[4] = tested on: OVCAR-8 ovarian
[5] = tested on: MCF7 breast
[6] = tested on: A549 NSCLC
[7] = tested on: CCRF-CEM leukemia
[8] = tested on: SF-295 CNS
[9] = tested on: MALME-3M melanoma
[10] = tested on: SNB-75 CNS
[11] = tested on: TK-10 renal
[12] = tested on: NCI-H522 lung
[13] = tested on: A498 renal

Measured: TGI

NC(C(F)(F)F)(C(F)(F)F)P(=O)(c1ccccc1)c1ccccc1
not listed: [12] | [13]
> 100 µM: all other assays above

COc1ccc(Nc2nc(N)c(C(=O)c3ccc(OC)cc3)s2)cc1
6.26 µM: [10]
> 64.7 µM: [13]
> 74.5 µM: [4]
75.8 µM: [2]
0.455 µM: [12]
> 60.7 µM: [11]
> 44.5 µM: [6]
> 100 µM: [3] | [5]
40.6 µM: [8]
> 35.8 µM: [1]

O=C(O)c1cc(-c2ccccc2O)nc2ccccc12
not listed: [2] | [5]
> 100 µM: all other assays above

NC12CC3CC(C1)CC(Cl)(C3)C2
not listed: [2] | [5] | [8]
> 100 µM: all other assays above

COC1=CC(C2c3cc4c(cc3[C@@H](Nc3ccc([N+](=O)[O-])cc3)C3COC(=O)[C@H]23)OCO4)=CC(=O)C1=O (stereo partly drawn)
43 µM: [11]
> 96.6 µM: [1]
6.65 µM: [2]
7.47 µM: [8]
41 µM: [3]
16 µM: [10]
10.6 µM: [6]
13.4 µM: [12]
40.4 µM: [4]
6.23 µM: [13]
> 25.3 µM: [7]
26.4 µM: [9]

C#CCCOC1(OC)N=NC(C)(C)O1 (stereo not drawn)
not listed: [5] | [11]
> 100 µM: all other assays above

CC1=NN2C(=O)CC(=O)N=C2S1
not listed: [13]
> 100 µM: all other assays above

c1ccc([C@@H]2N[C@@]3(CO[Si](c4ccccc4)(c4ccccc4)c4ccccc4)CC[C@H]4CN[C@@H]2[C@H]43)cc1
27.5 µM: [2]
31 µM: [3]
2.65 µM: [9]
30.5 µM: [11]
11.5 µM: [5]
28.7 µM: [4]
16.1 µM: [12]
25 µM: [8]
26.1 µM: [6]
> 100 µM: [1] | [7]
30.4 µM: [13]

COC(=O)C(/C(=N/N)C(=O)Nc1cc(Cl)c(Cl)cc1Cl)c1nc2ccc(Cl)cc2[nH]c1=O (stereo not drawn)
not listed: [7]
> 100 µM: all other assays above

C=CCNC(=O)/C(Cc1cc(Br)c(OC)c(Br)c1O)=N\O
34.4 µM: [3]
> 100 µM: [1] | [5]
6.07 µM: [12]
64.8 µM: [11]
17.3 µM: [9]
21.5 µM: [8]
23.4 µM: [2]
53.4 µM: [6]
20.9 µM: [4]
46.7 µM: [13]

CN1CC2=C(NC(=S)NC2c2ccc(Cl)cc2)/C(=C/c2ccc(Cl)cc2)C1 (stereo not drawn)
> 100 µM: [11]
31.2 µM: [10]
68.4 µM: [5]
45.1 µM: [6]
37.8 µM: [4]
32.7 µM: [1]
36.8 µM: [9]
33.8 µM: [8]
31.4 µM: [3]
30.9 µM: [7]
31 µM: [12]

COc1cccc(/C(C=O)=C(\Cl)c2ccc(OC)c(OC)c2)c1
46.2 µM: [1]
30.3 µM: [4]
36.9 µM: [3]
46.8 µM: [6]
28.9 µM: [8]
29 µM: [9]
22.1 µM: [12]
33.5 µM: [7]
21.3 µM: [10]
28.1 µM: [2]
73 µM: [11]

CC(=O)OC1OC2C(NC(=O)OC(C)(C)C)C1CC2(OCc1ccccc1)OCc1ccccc1 (stereo not drawn)
44.3 µM: [11]
> 91.5 µM: [8]
82.4 µM: [3]
> 100 µM: [4] | [6] | [10]
20.8 µM: [9]
82.9 µM: [7]
56.5 µM: [2]
> 94.8 µM: [1]
> 82.9 µM: [13]
30.5 µM: [12]

O=C1Nc2ccccc2[C@]12C[C@H]2c1ccccn1
not listed: [4] | [10]
> 100 µM: all other assays above

NC(=O)c1csc(CCCCCCc2nc(C(N)=O)cs2)n1
> 62.8 µM: [1]
> 62.4 µM: [7]
not listed: [5]
> 100 µM: all other assays above

NC(=O)C(=CN1C(=O)CC(=O)NC1=S)C(N)=O
not listed: [1] | [7] | [9] | [12]
> 100 µM: all other assays above

Cn1cnc2c(OCC3CCCCC3)nc(N)nc21
not listed: [13]
> 100 µM: all other assays above

CN(C)CCCSc1c2ccccc2nc2cc(NCC(=O)Nc3ccccc3-c3ccccc3NC(=O)CNc3ccc4c(SCCCN(C)C)c5ccccc5nc4c3)ccc12
92.7 µM: [7]
not listed: [5]
> 100 µM: all other assays above

COC(=O)/C(C#N)=C1\NC(=O)CC(c2ccccc2)C1C#N (stereo not drawn)
not listed: [13]
> 100 µM: all other assays above

Cn1c(=O)c2c(nc(C[N+]3([O-])CCOCC3)n2C)n(C)c1=O
not listed: [5] | [8] | [13]
> 100 µM: all other assays above

CCCCCC(=O)OCC(=O)[C@H]1[C@H](C)C[C@H]2[C@@H]3C[C@H](F)C4=C/C(=N/OC(=O)c5cccc6c(=O)c7ccccc7[nH]c56)C=C[C@]4(C)[C@H]3[C@@H](O)C[C@@]21C
46 µM: [12]
33.2 µM: [9]
65.9 µM: [4]
54.9 µM: [5]
69 µM: [10]
not listed: [13]
> 100 µM: all other assays above

CC1(C)C=[N+]([O-])C(C)(C)N1
not listed: [12] | [13]
> 100 µM: all other assays above

Cc1nccc2c1cnc1ccnn12
not listed: [5] | [8]
> 100 µM: all other assays above

O=C1C(Cl)C(c2ccc(Cl)cc2)N1n1cnc2ccccc2c1=O (stereo not drawn)
not listed: [5] | [13]
> 100 µM: all other assays above

COC(C/C(=C/CO[Si](C(C)C)(C(C)C)C(C)C)C(=O)Nc1ccccc1I)OC
6.05 µM: [12]
28.2 µM: [8]
98.5 µM: [2]
31.8 µM: [9]
70 µM: [3]
not listed: [5]
> 100 µM: all other assays above

Cc1ccc(S(=O)(=O)[N-]C2C(=O)c3ccccc3C(=O)C2[n+]2cccc(C(N)=O)c2)cc1 (stereo not drawn)
not listed: [9] | [13]
> 100 µM: all other assays above

COC(=O)[C@H]1C=C[C@@H](C)n2c(=O)c3ccccc3c(=O)n21
not listed: [5]
> 100 µM: all other assays above

CCOC(=O)C1=C(O)c2ccccc2C(=O)C1=O
not listed: [5]
> 100 µM: all other assays above

COc1ccc(C2CC(=O)Oc3ccccc3O2)cc1 (stereo not drawn)
93.2 µM: [12]
not listed: [3] | [9] | [13]
> 100 µM: all other assays above

C[C@@H]1C[C@@H](O)[C@@]2(O)C13CC(=O)OC(C3)[C@@H](C)[C@@]2(C)CO (stereo partly drawn)
not listed: [7] | [10]
> 100 µM: all other assays above

NC(=O)C12C3C4C1C1C2C3C41C(N)=O (stereo not drawn)
not listed: [5] | [9]
> 100 µM: all other assays above

CCOC(=O)c1nc2ccc(Cl)cc2c2c1CCO2
88.6 µM: [10]
not listed: [5]
> 100 µM: all other assays above

OCCSCc1cc2c(O)c(c1)Cc1cc(CSCCO)cc(c1O)Cc1cc(CSCCO)cc(c1O)Cc1cc(CSCCO)cc(c1O)C2
> 100 µM: [1]
20.4 µM: [6]
68.2 µM: [7]
14.7 µM: [12]
14.5 µM: [5]
17.6 µM: [4]
17.3 µM: [13]
5.88 µM: [9]
16.7 µM: [8]
37.5 µM: [2]
18.9 µM: [3]
37 µM: [11]

C/C(=N\NC(=O)/C(C#N)=C\c1ccc(N(CCC#N)CCC#N)cc1)c1ccccc1
not listed: [1] | [3] | [7] | [13]
> 10 µM: all other assays above

Nc1nc(Cl)cc(NCC2(CO)CCC2)n1
not listed: [13]
> 100 µM: all other assays above

CC1(C)C=C(/C=N/Nc2ccc(Br)cc2)C(C#N)=C(O)C1(C#N)C#N
not listed: [13]
> 100 µM: all other assays above

CC(=N/NC(=S)Nc1c(C)n(C)n(-c2ccccc2)c1=O)/C(C)=N\NC(=S)Nc1c(C)n(C)n(-c2ccccc2)c1=O
not listed: [1] | [5] | [7]
> 100 µM: all other assays above

O=c1oc2cc(O)ccc2c(O)c1C(c1ccccn1)c1c(O)c2ccc(O)cc2oc1=O
not listed: [9]
> 100 µM: all other assays above
